In US9328326B2, “Method for isolating cells” (MERCK PATENT GMBH, priority 2006, dated 2016):

What was measured:
Gram negative bacteria = test: recovery of Gram negative bacteria in matrix lysis; assay type: cell-based; settings: as detergent of the lysis buffer
Description: Combinations of five different detergents (Tween 20®, Tween 80®, Triton X-100®; SDS, and Lutensol AO-7), three enzymes (Protease, alpha-amylase and cellulase) and a sucrose buffer (0.25 M sucrose, 1 mM EDTA and 0.05 M Tris, pH 7.6) were compared with respect of their ability to dissolve food matrices (salmon, chicken meat, diary products, ice cream, blood, starch rich foodstuffs, egg and milk) and their effect on the cellular appearance of the bacterial cells. All chemicals used (with the exception of SDS, Sigma-Aldrich, Germany; Lutensol AO-7, BASF, Netherland and Savinase, Novozymes, Denmark) were purchased at Merck (Germany). The matrix lysis protocol is described below.
Matrix lysis was generally performed as described in example 1. Processing meat, fish, chicken and blood or when Gram positive bacteria were targeted, buffer system I (8 M urea, 1% SDS, and 1×PBS) was used. Buffer system II (8 M urea, 1% Lutensol AO-7 and 1×PBS) was used if Gram negative bacteria were targeted and for all other foodstuffs used (Milk, diary products, ice cream, and egg).

[1] = test system: prfA gene of L. monocytogenes (real-time PCR); test: inhibitory effects of detergents on real-time PCR; assay type: biochemical
Description: For experiments analysing the effects of food matrices and detergents contained in the matrix lysis buffer on real-time PCR, food matrices were mixed with equal amounts of ddH2O, stomachered for 3 minutes, diluted in a 10-fold dilution series (10^−1, 10^−2 and 10^−3) and 5 μl directly subjected to the real time PCR samples. An aliquot was cooked 15 min at 100° C. for comparison prior to subjection of 5 μl to real-time PCR. Detergents were diluted in 2-fold dilution series (0.4 M-0.05 M Urea and 0.8%-0.005% SDS) and 5 μl were subjected to the real-time PCR samples.
Real-time PCR was performed in an Mx3000p real-time PCR thermocycler (Stratagene, USA). The 25 μl volume contained 20 mM Tris-HCl, 50 mM KCl, 3.5 mM MgCl2. 500 nM of each primer, 250 nM of each probe, 200 μM (each) of dATP, dTTP, dGTP and dCTP, 1.5 U of Platinum Taq DNA polymerase (Invitrogen, Austria), 25 copies of the IAC and […]. Amplification following initial denaturation at 94° C. for 2 min was performed in 45 cycles, at each 94° C. for 15 s and 64° C. for 1 minute.

L. monocytogenes [2] = test: growth of L. monocytogenes after treatment with compounds of the matrix lysis protocol (Example 1); assay type: cell-based; settings: incubated 2 h at 45 °C in the compound, then plated
Description: L. monocytogenes EGDe was used as a DNA quantification standard for real-time PCR and for artificial contamination of food samples. The bacteria were maintained at -80° C. using the MicroBank technology (Pro-Lab Diagnostics, Canada). Listeria were grown in tryptone soy broth with 0.6% ([…]; Oxoid, UK) at 37° C. over night. For artificial contamination of food and viability staining, one milliliter of the over night culture was transferred to one milliliter of fresh medium and incubated at 37° C. for three hours. Plate count method and tryptone soy agar plates supplemented with 0.6% (w/v) yeast extract (TSA-Y; Oxoid, UK) were used for quantification of the pure cultures of L. monocytogenes. The agar plates were incubated at 37° C. for 24 hours. For determination of the survival rate of L. monocytogenes treated with different chemical compounds of the matrix lysis buffer system, 100 μl of an overnight culture of L. monocytogenes was pelleted at 8,000×g for 5 min, resuspended in the chemical compound of choice, and incubated for 2 h at 45° C. and 300 rpm on an Eppendorf shaker (Eppendorf, Germany). Afterwards the bacterial cells were washed twice in 1×PBS at 5,000×g and resuspended in 120 μl 1×PBS. One-hundred μl of the suspension was plated on […] agar plates (Biokar, Beauvais, France). Incubation was performed 48 h at 37° C.

S. aureus [3] = test: BacLight viability staining after exposure to chemical compounds; assay type: cell-based; set-up: key: red: Red colour indicates dead cells; c.r.: Reduced cell count; green: Green colour indicates living cells
Description: (§1) For assessment of the survival rate of the bacteria treated with different chemical compounds of the matrix lysis buffer system, 100 μl of an overnight culture was pelleted at 8,000×g for 5 min, re-suspended in 1 ml of the chemical compound of choice, […] shaker (Eppendorf, Germany). The bacterial cells were then washed twice in 1×PBS at 5,000×g and re-suspended in 120 μl 1×PBS. One-hundred it of the suspension was plated onto TSB-Y agar plates (Oxoid). Incubation was performed for 48 h at 37° C. Additionally the Live/Dead® BacLight™ Bacterial Viability Kit (Molecular Probes, USA) was used to examine the condition of the bacteria after the chemical treatments.
(§2) Viability staining was performed using the Live/Dead® BacLight™ Bacterial Viability Kit (Molecular Probes) as prescribed by the manufacturer. Ten fields per filter were analysed, and two filters were prepared for each sample.

E. coli [4] = test: as above; assay type: cell-based; set-up: key: red: Red colour indicates dead cells; c.r.: Reduced cell count; green: Green colour indicates living cells
Description: as §1, §2

L. monocytogenes [5] = test: as above; assay type: cell-based; set-up: key: red: Red colour indicates dead cells; c.r.: Reduced cell count; green: Green colour indicates living cells
Description: as §1, §2

B. cereus [6] = test: as above; assay type: cell-based; set-up: key: red: Red colour indicates dead cells; c.r.: Reduced cell count; green: Green colour indicates living cells
Description: as §1, §2

S. thyphimurium [7] = test: as above; assay type: cell-based
Description: as §1, §2

S. aureus [8] = test: plate growth after exposure to chemical compounds; assay type: cell-based
Description: as §1

S. thyphimurium [9] = test: plate growth after exposure to chemical compounds; assay type: cell-based
Description: as §1

E. coli [10] = test: plate growth after exposure to chemical compounds; assay type: cell-based
Description: as §1

L. monocytogenes [11] = test: plate growth after exposure to chemical compounds; assay type: cell-based
Description: as §1

B. cereus [12] = test: plate growth after exposure to chemical compounds; assay type: cell-based
Description: as §1

Q: Which “recovery of Gram negative bacteria” value (Gram negative bacteria) does the source give for CCCCCCCCCCCCOS(=O)(=O)[O-].[Na+] [1% SDS, sodium dodecyl sulfate] here?
A: decreasing the recovery

Q: What about the “inhibitory effect on real-time PCR” value ([1]; SDS 0.8% to 0.005%, 15.5 and 1,550 copies/PCR) of the same compound?
A: no amplification

Q: What about the “growth of L. monocytogenes on TSY agar after treatment” value (L. monocytogenes [2]) of the same compound?
A: Complete inhibition of growth

Q: How did the “S. aureus BacLight” value (S. aureus [3]; 37 °C) turn out when NC(N)=O [8 M Urea, urea] was run?
A: green

Q: What about the “S. aureus BacLight” value (S. aureus [3]; 42 °C) of the same compound?
A: green

Q: And the “S. aureus BacLight” value (S. aureus [3]; 45 °C)?
A: green

Q: What about the “E. coli BacLight” value (E. coli [4]; 37 °C) of the same compound?
A: red^a

Q: And the “E. coli BacLight” value (E. coli [4]; 42 °C)?
A: c.r./red

Q: And the “E. coli BacLight” value (E. coli [4]; 45 °C)?
A: c.r./red

Q: And the “L. monocytogenes BacLight” value (L. monocytogenes [5]; 37 °C)?
A: green^c

Q: What about the “L. monocytogenes BacLight” value (L. monocytogenes [5]; 42 °C) of the same compound?
A: green

Q: And the “L. monocytogenes BacLight” value (L. monocytogenes [5]; 45 °C)?
A: green

Q: What about the “B. cereus BacLight” value (B. cereus [6]; 37 °C) of the same compound?
A: green

Q: And the “B. cereus BacLight” value (B. cereus [6]; 42 °C)?
A: green

Q: What about the “B. cereus BacLight” value (B. cereus [6]; 45 °C) of the same compound?
A: green

Q: And the “S. thyphimurium BacLight” value (S. thyphimurium [7]; 37 °C)?
A: c.r.^b/red

Q: What about the “S. thyphimurium BacLight” value (S. thyphimurium [7]; 42 °C) of the same compound?
A: c.r./red

Q: And the “S. thyphimurium BacLight” value (S. thyphimurium [7]; 45 °C)?
A: c.r./red

Q: And the “inhibitory effect on real-time PCR” value ([1]; urea 0.4 M and 0.2 M, 15.5 copies of the target)?
A: total inhibition

Q: What about the “inhibitory effect on real-time PCR” value ([1]; urea 0.4 M, 1,550 copies of the target) of the same compound?
A: total inhibition

Q: What about the “growth of L. monocytogenes on TSY agar after treatment” value (L. monocytogenes [2]) of the same compound?
A: able to grow

Q: And the “S. aureus Plate growth” value (S. aureus [8]; 37 °C)?
A: pos..

Q: And the “S. aureus Plate growth” value (S. aureus [8]; 42 °C)?
A: pos..

Q: What about the “S. aureus Plate growth” value (S. aureus [8]; 45 °C) of the same compound?
A: pos..

Q: And the “S. thyphimurium Plate growth” value (S. thyphimurium [9]; 37 °C)?
A: neg.

Q: And the “S. thyphimurium Plate growth” value (S. thyphimurium [9]; 42 °C)?
A: neg.

Q: And the “S. thyphimurium Plate growth” value (S. thyphimurium [9]; 45 °C)?
A: neg.

Q: And the “E. coli Plate growth” value (E. coli [10]; 37 °C)?
A: neg.

Q: What about the “E. coli Plate growth” value (E. coli [10]; 42 °C) of the same compound?
A: neg.

Q: And the “L. monocytogenes Plate growth” value (L. monocytogenes [11]; 37 °C)?
A: pos..

Q: What about the “L. monocytogenes Plate growth” value (L. monocytogenes [11]; 42 °C) of the same compound?
A: pos..

Q: What about the “L. monocytogenes Plate growth” value (L. monocytogenes [11]; 45 °C) of the same compound?
A: pos..

Q: And the “B. cereus Plate growth” value (B. cereus [12]; 37 °C)?
A: pos..

Q: What about the “B. cereus Plate growth” value (B. cereus [12]; 42 °C) of the same compound?
A: pos..

Q: And the “B. cereus Plate growth” value (B. cereus [12]; 45 °C)?
A: pos..
